Where two headings read alike, the source gives them in different places.
Experiments:
CCRF-CEM = experiment: panel of 60 human tumor cell lines, growth inhibition (Leukemia)
SR = experiment: as above
SK-MEL-2 = experiment: panel of 60 human tumor cell lines, growth inhibition (Melanoma); settings: SK-MEL-2
SK-MEL-28 = experiment: as above; settings: SK-MEL-28
UACC-257 = experiment: as above; settings: UACC-257
UACC-62 = experiment: as above; settings: UACC-62
SNB-75 = experiment: panel of 60 human tumor cell lines, growth inhibition (CNS Cancer); settings: SNB-75
HCT-116 = experiment: panel of 60 human tumor cell lines, growth inhibition (Colon Cancer); settings: HCT-116

C=C1C(=O)O[C@H]2[C@H]1CC/C(COC(=O)N1CCN(C)CC1)=C\CC[C@@]1(C)O[C@@H]21 [JVM 2-44]
GI50 (HL-60(TB)): 2.53 µM | TGI (HL-60(TB)): 9.30E−6 | Mean Optical Densities (HL-60(TB); Log10 Concentration −4.0): 0.925 | Percent Growth (HL-60(TB); Log10 Concentration −4.0): −37% | Mean Optical Densities (HL-60(TB); Log10 Concentration −5.0): 1.432 | Percent Growth (HL-60(TB); Log10 Concentration −5.0): −3% | Mean Optical Densities (HL-60(TB); Log10 Concentration −6.0): 2.594 | Mean Optical Densities (HL-60(TB); Log10 Concentration −7.0): 2.607 | Percent Growth (HL-60(TB); Log10 Concentration −7.0): 87% | Mean Optical Densities (HL-60(TB); Log10 Concentration −8.0): 2.812 | Percent Growth (HL-60(TB); Log10 Concentration −8.0): 102% | CC50 (HL-60(TB); read-out: LC50): > 100 µM | GI50 (CCRF-CEM): 3.06 µM | TGI (CCRF-CEM): 1.84E−5 | Mean Optical Densities (CCRF-CEM; Log10 Concentration −4.0): 0.393 | Percent Growth (CCRF-CEM; Log10 Concentration −4.0): −25% | Mean Optical Densities (CCRF-CEM; Log10 Concentration −5.0): 0.689 | Percent Growth (CCRF-CEM; Log10 Concentration −5.0): 9% | Mean Optical Densities (CCRF-CEM; Log10 Concentration −6.0): 2.185 | Percent Growth (CCRF-CEM; Log10 Concentration −6.0): 89% | Mean Optical Densities (CCRF-CEM; Log10 Concentration −7.0): 2.250 | Percent Growth (CCRF-CEM; Log10 Concentration −7.0): 92% | Mean Optical Densities (CCRF-CEM; Log10 Concentration −8.0): 2.265 | Percent Growth (CCRF-CEM; Log10 Concentration −8.0): 93% | GI50 (SR): 2.81 µM | TGI (SR): 3.33E−5 | Mean Optical Densities (SR; Log10 Concentration −4.0): 0.332 | Percent Growth (SR; Log10 Concentration −4.0): −14% | Mean Optical Densities (SR; Log10 Concentration −5.0): 0.534 | Percent Growth (SR; Log10 Concentration −5.0): 16% | Mean Optical Densities (SR; Log10 Concentration −6.0): 1.105 | Percent Growth (SR; Log10 Concentration −6.0): 78% | Mean Optical Densities (SR; Log10 Concentration −7.0): 1.224 | Percent Growth (SR; Log10 Concentration −7.0): 91% | Mean Optical Densities (SR; Log10 Concentration −8.0): 1.227 | Percent Growth (SR; Log10 Concentration −8.0): 91% | GI50 (SK-MEL-2): 17.2 µM | TGI (SK-MEL-2): 3.60E−5 | Mean Optical Densities (SK-MEL-2; Log10 Concentration −4.0): 0.382 | Percent Growth (SK-MEL-2; Log10 Concentration −4.0): −69% | Mean Optical Densities (SK-MEL-2; Log10 Concentration −5.0): 1.984 | Percent Growth (SK-MEL-2; Log10 Concentration −5.0): 87% | Mean Optical Densities (SK-MEL-2; Log10 Concentration −6.0): 2.148 | Percent Growth (SK-MEL-2; Log10 Concentration −6.0): 106% | Mean Optical Densities (SK-MEL-2; Log10 Concentration −7.0): 2.037 | Percent Growth (SK-MEL-2; Log10 Concentration −7.0): 93% | Mean Optical Densities (SK-MEL-2; Log10 Concentration −8.0): 2.082 | Percent Growth (SK-MEL-2; Log10 Concentration −8.0): 98% | GI50 (SK-MEL-28): 7.03 µM | TGI (SK-MEL-28): 2.21E−5 | Mean Optical Densities (SK-MEL-28; Log10 Concentration −4.0): 0.108 | Percent Growth (SK-MEL-28; Log10 Concentration −4.0): −80% | Mean Optical Densities (SK-MEL-28; Log10 Concentration −5.0): 0.950 | Percent Growth (SK-MEL-28; Log10 Concentration −5.0): 42% | Mean Optical Densities (SK-MEL-28; Log10 Concentration −6.0): 1.424 | Percent Growth (SK-MEL-28; Log10 Concentration −6.0): 93% | Mean Optical Densities (SK-MEL-28; Log10 Concentration −7.0): 1.424 | Percent Growth (SK-MEL-28; Log10 Concentration −7.0): 93% | Mean Optical Densities (SK-MEL-28; Log10 Concentration −8.0): 1.458 | Percent Growth (SK-MEL-28; Log10 Concentration −8.0): 96% | GI50 (UACC-257): 9.93 µM | TGI (UACC-257): 2.32E−5 | Mean Optical Densities (UACC-257; Log10 Concentration −4.0): 0.150 | Percent Growth (UACC-257; Log10 Concentration −4.0): −86% | Mean Optical Densities (UACC-257; Log10 Concentration −5.0): 1.662 | Percent Growth (UACC-257; Log10 Concentration −5.0): 50% | Mean Optical Densities (UACC-257; Log10 Concentration −6.0): 2.046 | Percent Growth (UACC-257; Log10 Concentration −6.0): 84% | Mean Optical Densities (UACC-257; Log10 Concentration −7.0): 2.135 | Percent Growth (UACC-257; Log10 Concentration −7.0): 92% | Mean Optical Densities (UACC-257; Log10 Concentration −8.0): 2.160 | Percent Growth (UACC-257; Log10 Concentration −8.0): 94% | GI50 (UACC-62): 6.56 µM | TGI (UACC-62): 2.14E−5 | Mean Optical Densities (UACC-62; Log10 Concentration −4.0): 0.089 | Percent Growth (UACC-62; Log10 Concentration −4.0): −83% | Mean Optical Densities (UACC-62; Log10 Concentration −5.0): 1.284 | Percent Growth (UACC-62; Log10 Concentration −5.0): 41% | Mean Optical Densities (UACC-62; Log10 Concentration −6.0): 2.153 | Percent Growth (UACC-62; Log10 Concentration −6.0): 89% | Mean Optical Densities (UACC-62; Log10 Concentration −7.0): 2.330 | Percent Growth (UACC-62; Log10 Concentration −7.0): 99% | Mean Optical Densities (UACC-62; Log10 Concentration −8.0): 2.369 | Percent Growth (UACC-62; Log10 Concentration −8.0): 101% | GI50 (SNB-75): 7.65 µM | TGI (SNB-75): 2.40E−5 | Mean Optical Densities (SNB-75; Log10 Concentration −4.0): 0.183 | Percent Growth (SNB-75; Log10 Concentration −4.0): −76% | Mean Optical Densities (SNB-75; Log10 Concentration −5.0): 1.112 | Percent Growth (SNB-75; Log10 Concentration −5.0): 47% | Mean Optical Densities (SNB-75; Log10 Concentration −6.0): 1.330 | Percent Growth (SNB-75; Log10 Concentration −6.0): 76% | Mean Optical Densities (SNB-75; Log10 Concentration −7.0): 1.274 | Percent Growth (SNB-75; Log10 Concentration −7.0): 68% | Mean Optical Densities (SNB-75; Log10 Concentration −8.0): 1.343 | Percent Growth (SNB-75; Log10 Concentration −8.0): 78% | GI50 (HCT-116): 3.79 µM | TGI (HCT-116): 1.43E−5 | Mean Optical Densities (HCT-116; Log10 Concentration −4.0): 0.061 | Percent Growth (HCT-116; Log10 Concentration −4.0): −80% | Mean Optical Densities (HCT-116; Log10 Concentration −5.0): 0.598 | Percent Growth (HCT-116; Log10 Concentration −5.0): 15% | Mean Optical Densities (HCT-116; Log10 Concentration −6.0): 2.231 | Percent Growth (HCT-116; Log10 Concentration −6.0): 98% | Mean Optical Densities (HCT-116; Log10 Concentration −7.0): 2.250 | Percent Growth (HCT-116; Log10 Concentration −7.0): 99% | Mean Optical Densities (HCT-116; Log10 Concentration −8.0): 2.298 | Percent Growth (HCT-116; Log10 Concentration −8.0): 102%
